This passage reports IC50 results from US8907098B2, “Inhibitors of sphingosine kinase” (MERCK PATENT GmbH, priority 2009, dated 2014).

This assay concerns the target modified SphK1 (Homo sapiens, UniProt Q9NYA1). Put plainly: SphK1 biochemical kinase assay (384-well flashplate). The note with it: IC50 ranges; 5 nM modified SphK1, 1 μM ATP, 30° C., 120 min; read-out: SphK1 Inhibition IC50. The procedure:
The kinase assay is carried out as a 384-well flashplate assay.
5 nM modified SphK1, 800 nM omega-biotinyl-D-erythro-sphingosine and 1 μM ATP (with 0.3 μCi of ^33P-ATP/well) are incubated in a total volume of 50 μl (25 mM HEPES, 5 mM MgCl2, 1 mM dithiothreitol, 0.01% of Brij35, 0.1% of BSA (fatty acid-free), pH 7.4) without or with test substance (5-10 concentrations) at 30° C. for 120 min. The reaction is terminated using 25 μl of 200 mM EDTA solution, filtered off with suction at room temperature after 30 min, and the cavities are washed 3 times with 100 μl of 0.9% NaCl solution. The non-specific proportion of the kinase reaction (blank) is determined using 0.5 mM NaCl. Radioactivity is measured in topcount. IC50 values are calculated using RS1.

Chain of modified SphK1 (Q9NYA1 whole entry): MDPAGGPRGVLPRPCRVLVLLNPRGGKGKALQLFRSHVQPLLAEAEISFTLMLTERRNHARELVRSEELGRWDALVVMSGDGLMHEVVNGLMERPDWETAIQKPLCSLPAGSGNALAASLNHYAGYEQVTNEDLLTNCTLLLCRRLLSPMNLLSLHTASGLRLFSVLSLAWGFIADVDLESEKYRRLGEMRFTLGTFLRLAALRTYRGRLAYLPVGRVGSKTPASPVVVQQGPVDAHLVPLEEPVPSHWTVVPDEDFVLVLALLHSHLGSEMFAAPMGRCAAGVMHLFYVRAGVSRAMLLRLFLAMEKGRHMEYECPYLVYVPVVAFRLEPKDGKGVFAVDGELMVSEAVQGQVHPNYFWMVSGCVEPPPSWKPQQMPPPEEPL

By IC50 is commonly meant the concentration at which inhibition is half-maximal. Regarding `CC1(C)CCC(C)(C)c2cc(-c3csc(C4CCNC4)n3)ccc21` (stereo not shown) [2-Pyrrolidin-3-yl-4-(5,5,8,8-tetramethyl-5,6,7,8-tetrahydronaphthalen-2-yl)thiazole], the IC50 lay within 100 to 1000 nM. The same measure for `CC1(C)CCC(C)(C)c2cc(-c3csc(N4CCC(N5CCN(CCO)CC5)CC4)n3)ccc21`: 100 to 1000 nM.

In the case of `CC1(C)CCC(C)(C)c2cc(-c3csc(N4CCC(NCCCO)CC4)n3)ccc21`, the IC50 is under 100 nM. In the case of `CC1(C)CCC(C)(C)c2cc(-c3csc(N4CCC(N)C4)n3)ccc21` (stereo not shown) [1-[4-(5,5,8,8-Tetramethyl-5,6,7,8-tetrahydronaphthalen-2-yl)thiazol-2-yl]pyrrolidin-3-ylamine] it was 100 to 1000 nM; in that of `CC1(C)CCCc2cc(-c3csc(N4CCC(N)CC4)n3)ccc21`, 100 to 1000 nM; in that of `CC1(C)CCC(C)(C)c2cc(-c3csc(N4CC[C@@H](NCCO)C4)n3)ccc21`, over 1000 nM. In the case of `CC1(C)CCC(C)(C)c2cc(-c3csc(N4CCC5(CCNCC5)CC4)n3)ccc21` [3-[4-(5,5,8,8-Tetramethyl-5,6,7,8-tetrahydronaphthalen-2-yl)thiazol-2-yl]-3,9-diazaspiro[5.5]undecane] it was 100 to 1000 nM; in that of `Cn1cncc1CNC1CCN(c2nc(-c3ccc4c(c3)C(C)(C)CCC4(C)C)cs2)CC1` [(3-Methyl-3H-imidazol-4-ylmethyl)-{1-[4-(5,5,8,8-tetramethyl-5,6,7,8-tetrahydronaphthalen-2-yl)thiazol-2-yl]piperidin-4-yl}amine], 100 to 1000 nM.

As for `CC1(C)CCC(C)(C)c2cc(-c3csc(C4CCCNC4)n3)ccc21` (stereo not shown) [3-[4-(5,5,8,8-Tetramethyl-5,6,7,8-tetrahydronaphthalen-2-yl)thiazol-2-yl]piperidine], the IC50 was 100 to 1000 nM. The same measure for `CN1CCN(C2CCN(c3nc(-c4ccc5c(c4)C(C)(C)CCC5(C)C)cs3)CC2)CC1` [1-Methyl-4-{1-[4-(5,5,8,8-tetramethyl-5,6,7,8-tetrahydronaphthalen-2-yl)thiazol-2-yl]piperidin-4-yl}piperazine]: 100 to 1000 nM. The same measure for `CC1(C)CCC(C)(C)c2cc(-c3csc(N4CCC(N(CCO)CCO)CC4)n3)ccc21` [2-((2-Hydroxyethyl)-{1-[4-(5,5,8,8-tetramethyl-5,6,7,8-tetrahydronaphthalen-2-yl)thiazol-2-yl]piperidin-4-yl}amino)ethanol]: 100 to 1000 nM.

As to `CC1(C)CCC(C)(C)c2cc(-c3csc(N4CCCC(C(=O)NCCCO)C4)n3)ccc21` (stereo not shown), the IC50 is over 1000 nM.

In the case of `CC1(C)CCC(C)(C)c2cc(-c3csc(N4CCC(N5CCOCC5)CC4)n3)ccc21`, the IC50 was over 1000 nM. For the compound `CC1(C)CCc2cc(-c3csc(N4CCC(NCCCO)CC4)n3)ccc21` [3-{1-[4-(1,1-Dimethylindan-5-yl)thiazol-2-yl]piperidin-4-ylamino}propan-1-ol], the IC50 was 100 to 1000 nM. `CC1(C)CCCc2cc(-c3csc(N4CCN(CCCCO)CC4)n3)ccc21`: the IC50 was in the range of 100 to 1000 nM. As for `CC1(C)CCC(C)(C)c2cc(-c3csc(N4CCC(N5CCC(N)C5)CC4)n3)ccc21` (stereo not shown), the IC50 was 100 to 1000 nM.

As to `CC1(C)CCC(C)(C)c2cc(-c3csc(N4CCN(CC(O)CO)CC4)n3)ccc21` (stereo not shown), the IC50 fell in the range of 100 to 1000 nM. In the case of `CC1(C)CCCc2cc(-c3csc(N4CCN(CCCCCO)CC4)n3)ccc21` [5-{4-[4-(5,5-Dimethyl-5,6,7,8-tetrahydronaphthalen-2-yl)thiazol-2-yl]-piperazin-1-yl}pentan-1-ol] it was over 1000 nM; in that of `CC(=O)NC1CCN(C2CCN(c3nc(-c4ccc5c(c4)C(C)(C)CCC5(C)C)cs3)CC2)C1` (stereo not shown), under 100 nM; in that of `CC1(C)CCC(C)(C)c2cc(-c3csc(C4CCCN(CCCCCO)C4)n3)ccc21` (stereo not shown), over 1000 nM.

For `CC1(C)CCC(C)(C)c2cc(-c3csc(C4CCC(N)CC4)n3)ccc21` (stereo not shown), the IC50 is 100 to 1000 nM. Consider `CC1(C)CCCc2cc(-c3csc(C4CCN(CCCCO)C4)n3)ccc21` (stereo not shown) [4-{3-[4-(5,5-Dimethyl-5,6,7,8-tetrahydronaphthalen-2-yl)thiazol-2-yl]-pyrrolidin-1-yl}butan-1-ol], for which the IC50 is 100 to 1000 nM. Consider `CC(=O)N1CCC(c2csc(-c3ccc4c(c3)C(C)(C)CCC4(C)C)n2)CC1`, for which the IC50 is 100 to 1000 nM. In the case of `CC1(C)CCC(C)(C)c2cc(-c3csc(N4CCN(CCO)CC4)n3)ccc21` it was 100 to 1000 nM. For `CC1(C)CCCc2cc(-c3csc(N4CCC(N(CCO)CCO)CC4)n3)ccc21`, the 50% inhibitory concentration (IC50) is 100 to 1000 nM.

Turning to `CC1(C)CCC(C)(C)c2cc(-c3csc(N4CCC(N(Cc5cc[nH]n5)Cc5cc[nH]n5)CC4)n3)ccc21` [Bis-(1H-pyrazol-3-ylmethyl)-{1-[4-(5,5,8,8-tetramethyl-5,6,7,8-tetrahydronaphthalen-2-yl)thiazol-2-yl]piperidin-4-yl}amine], the half-maximal inhibitory concentration (IC50) lay within 100 to 1000 nM. As to `CC1(C)CCC(C)(C)c2cc(-c3csc(N4CCC(NC[C@@H](N)CO)CC4)n3)ccc21`, the IC50 lay within 100 to 1000 nM. The same measure for `CC1(C)CCCc2cc(-c3csc(C4CCNC4)n3)ccc21` (stereo not shown) [4-(5,5-Dimethyl-5,6,7,8-tetrahydronaphthalen-2-yl)-2-pyrrolidin-3-yl-thiazole]: 100 to 1000 nM; for `CC1(C)CCC(C)(C)c2cc(-c3csc(N4CCC(NCCO)CC4)n3)ccc21`: under 100 nM; for `CC1(C)CCC(C)(C)c2cc(-c3csc(N4CCC(N)CC4)n3)ccc21` [1-[4-(5,5,8,8-Tetramethyl-5,6,7,8-tetrahydronaphthalen-2-yl)thiazol-2-yl]piperidin-4-ylamine]: 100 to 1000 nM.

Consider `CC1(C)CCC(C)(C)c2cc(-c3csc(N4CCC(NCC(O)CO)CC4)n3)ccc21` (stereo not shown), for which the IC50 is under 100 nM. As for `CCOC(=O)C1CCN(c2nc(-c3ccc4c(c3)C(C)(C)CCC4(C)C)cs2)CC1` [1-[4-(5,5,8,8-Tetramethyl-5,6,7,8-tetrahydronaphthalen-2-yl)thiazol-2-yl]piperidine-4-carboxylic acid ethyl ester], the IC50 was over 1000 nM. In the case of `CC1(C)CCC(C)(C)c2cc(-c3csc(N4CCC(NCc5c[nH]cn5)CC4)n3)ccc21` [(1H-Imidazol-4-ylmethyl)-{1-[4-(5,5,8,8-tetramethyl-5,6,7,8-tetrahydronaphthalen-2-yl)thiazol-2-yl]piperidin-4-yl}amine] it was under 100 nM; in that of `CC1(C)CCC(C)(C)c2cc(-c3csc(N4CCC(NC[C@H](O)CO)CC4)n3)ccc21`, under 100 nM. Turning to `CC1(C)CCC(C)(C)c2cc(-c3csc(N4CCC(CCN5CCCC5)CC4)n3)ccc21` [4-(2-Pyrrolidin-1-ylethyl)-1-[4-(5,5,8,8-tetramethyl-5,6,7,8-tetrahydronaphthalen-2-yl)thiazol-2-yl]piperidine], the IC50 was 100 to 1000 nM. The same measure for `CC1(C)CCC(C)(C)c2cc(-c3csc(N4CC[C@H](N)C4)n3)ccc21`: 100 to 1000 nM. For the compound `CC1(C)CCC(C)(C)c2cc(-c3csc(N4CCC(C5CCNCC5)CC4)n3)ccc21` [1-[4-(5,5,8,8-Tetramethyl-5,6,7,8-tetrahydronaphthalen-2-yl)thiazol-2-yl]-4,4′-bipiperidinyl], the IC50 lay in the range of 100 to 1000 nM. The same measure for `CN(C)C1CCN(c2nc(-c3ccc4c(c3)C(C)(C)CCC4(C)C)cs2)CC1` [Dimethyl-{1-[4-(5,5,8,8-tetramethyl-5,6,7,8-tetrahydronaphthalen-2-yl)thiazol-2-yl]piperidin-4-yl}amine]: under 100 nM; for `CC1(C)CCC(C)(C)c2cc(-c3csc(N4CCC(CN)CC4)n3)ccc21`: 100 to 1000 nM; for `CC1(C)CCC(C)(C)c2cc(-c3csc(N4CCN(CCCCO)CC4)n3)ccc21`: 100 to 1000 nM. Consider `CC1(C)CCC(C)(C)c2cc(-c3csc(N4CCC(C(=O)NCCO)CC4)n3)ccc21`, for which the half-inhibitory concentration (IC50) is over 1000 nM. In the case of `CC1(C)CCC(C)(C)c2cc(-c3csc(N4CCC(CCN)CC4)n3)ccc21` it was 100 to 1000 nM; in that of `CC1(C)CCC(C)(C)c2cc(-c3csc(N4CCCC(CCCO)C4)n3)ccc21` (stereo not shown), over 1000 nM; in that of `CC1(C)CCCc2cc(-c3csc(N4CCNCC4)n3)ccc21` [1-[4-(5,5-Dimethyl-5,6,7,8-tetrahydronaphthalen-2-yl)thiazol-2-yl]-piperazine], 100 to 1000 nM.

`CC1(C)CCC(C)(C)c2cc(-c3csc(N4CCC(CCCO)CC4)n3)ccc21`: the IC50 is over 1000 nM. As to `CC1(C)CCC(C)(C)c2cc(-c3nc(C4CCNCC4)cs3)ccc21` [4-[2-(5,5,8,8-Tetramethyl-5,6,7,8-tetrahydronaphthalen-2-yl)thiazol-4-yl]piperidine], the IC50 lay within 100 to 1000 nM.

Turning to `CC1(C)CCC(C)(C)c2cc(-c3csc(N4CCN(CCCCCO)CC4)n3)ccc21`, the 50% inhibitory concentration (IC50) was 100 to 1000 nM. In the case of `CC1(C)CCc2cc(-c3csc(N4CCC(NCCO)CC4)n3)ccc21` [2-{1-[4-(1,1-Dimethylindan-5-yl)thiazol-2-yl]piperidin-4-ylamino}ethanol] it was 100 to 1000 nM; in that of `CC1(C)CCC(C)(C)c2cc(-c3csc(N4CC[C@H](NCCCO)C4)n3)ccc21`, over 1000 nM. The same measure for `CC1(C)CCC(C)(C)c2cc(-c3csc(C4CCCN(CCCO)C4)n3)ccc21` (stereo not shown): over 1000 nM; for `CC1(C)CCC(C)(C)c2cc(-c3csc(N4CCN(C5CCCCC5O)CC4)n3)ccc21` (stereo not shown): 100 to 1000 nM. As to `CC1(C)CCC(C)(C)c2cc(-c3csc(C4CCCN(CCCCO)C4)n3)ccc21` (stereo not shown), the IC50 was over 1000 nM.

Regarding `CC1(C)CCCc2cc(-c3csc(C4CCN(CCCCCO)C4)n3)ccc21` (stereo not shown), the half-inhibitory concentration (IC50) is 100 to 1000 nM. The same measure for `CC1(C)CCC(C)(C)c2cc(-c3csc(N4CCCC(C(=O)NCCO)C4)n3)ccc21` (stereo not shown): 100 to 1000 nM; for `CC1(C)CCC(C)(C)c2cc(-c3csc(N4CCC(NC[C@@H](O)CO)CC4)n3)ccc21`: 100 to 1000 nM.
